The results in this text go back to US20240132445A1, “PHENOL DERIVATIVE AND APPLICATION THEREOF IN MEDICAMENTS” (priority 2021, published 2024).

Series [1] is described as follows: in vivo. The note with it: both, ICR, mouse, in vivo, iv. The protocol:
(§1) SPF-grade ICR mice, each weighing 18-22 g, half male and half female, were used. A well-established mouse anesthesia model was used to study the general anesthesia effect of the compound of the present invention. The compounds were formulated with solvents of 10% DMSO, 15% solutol (HS15) and 75% saline to the desired concentration, for further use. After adapting to the experimental environment, the experimental animals were fasted with water available for 12 h, and were administered via intravenous injection at an administration volume of 10 mL/kg. Then the anesthesia induction time (the time period from drug administration to disappearance of the righting reflex) and the anesthesia maintenance time (the time period from disappearance of the righting reflex to recovery of the righting reflex) were recorded. Indicators including the median effective dose (ED50), median lethal dose (LD50), therapeutic index (TI, i.e. LD50/ED50), anesthesia induction time, anesthesia maintenance time and maximum tolerated dose were used to evaluate the effect and safety of anesthesia.

A further series deals with ICR mice. The series is described as follows: animal or person. As to conditions: for ED50: Mus musculus. Here is the method:
as §1

The nature of series [2]: Pharmacokinetic study in Beagle dogs. The series is classed as in vivo. As to conditions: male, dog, plasma, iv, 0.5 mg/kg. The protocol: Six male Beagle dogs (6-10 kg) were randomized into 2 groups (n=3): control group 3 and compound 20. The […] were administered via intravenous injection at 0.5 mg/kg (control group 3) and 0.5 mg/kg (compound 20), respectively, with an administration volume of 1 mL/kg and a vehicle of 5% DMSO+10% solutol (HS15)+85% Saline. Blood samples were taken before administration and at 2 min, 5 min, 10 min, 20 min, 30 min, 1 h, 1.5 h, 2 h and 3 h after administration. Plasma samples were taken by centrifugation, and stored in a −80° C. refrigerator until LC-MS analysis to be tested. After sample processing, quantitative analysis of substances in plasma was conducted using LCMS/MS to detect the concentration of prototype compounds in the plasma. The plasma concentration/time curve obtained in this way was used to calculate pharmacokinetic parameters by a validated pharmacokinetic computer program.

The subject of the next series is Beagle dogs. The series is described as follows: Hemodynamic effect study in conscious Beagle dogs (telemetry). The class given is in vivo. As to conditions: iv, control group 3 2 mg/kg, compound 20 0.5 and 1 mg/kg, within 1 h, recovery after 1 h. The protocol:
The experiment used an emka PACK 4G telemetry system to detect the effects of intravenous injection of control group 3 and compound 20 on electrocardiogram, blood pressure and body temperature in conscious Beagle dogs, providing reference information for evaluating the safety of clinical use.
Four Beagle dogs were subjected to crossover administration, with a vehicle control (5% DMSO+10% solutol+85% Saline), control group 3 (2 mg/kg), compound 20 (0.5 mg/kg) and compound 20 (1 mg/kg) for each intravenous injection, with an administration volume of 2 mL/kg. Observations were respectively conducted before administration and within 1 h after administration on the day of administration. Anal temperature was measured before administration and at 30 min, 1 h, 2 h and 3 h after administration during each administration period; and electrocardiogram parameters were continuously collected from 0.5 h before administration to 3 h after administration during each administration period. Blood pressure was collected at 15 min after collection was started, and was collected at 2 min, 5 min, 10 min, 20 min, 30 min, 1 h, 2 h and 3 h after administration. The electrocardiogram, blood pressure data, body temperature, and clinical observation results on the day of administration at various time points including before administration (at 30 min after collection was started) and at 2 min, 5 min, 10 min, 20 min, 30 min, 1 h, 2 h and 3 h after administration were analysed and evaluated.

A short description of series [3]: in vivo. The series is classed as in vivo, rats. The note with it: both sexes, Sprague-Dawley, rat, in vivo, iv.
Experimental: (§2) SD rats, half male and half female, were fasted with water available for 12 h, and were administered via intravenous injection at an administration volume of 10 mL/kg. Then the anesthesia induction time (the time period from drug administration to disappearance of the righting reflex), the anesthesia maintenance time (the time period from disappearance of the righting reflex to recovery of the righting reflex and revival) and the anesthesia recovery time (the time period from revival to complete recovery) were recorded. Indicators including the median effective dose (ED50), median lethal dose (LD50), therapeutic index (TI, i.e. LD50/ED50), anesthesia induction time, anesthesia maintenance time and maximum tolerated dose were used to evaluate the effect and safety of anesthesia.
A further series concerns SD rats. Briefly: animal or person. The class given is in vivo.
Series [4] can be described thus: Pharmacokinetic study in rats. The class given is in vivo, SD rats. The note with it: male, Sprague-Dawley, rat, plasma, iv, 1 mg/kg. Here is the method:
Twelve male SD rats (200-300 g) were randomized into 2 groups (n=6): control group 3 and compound 20. The rats were administered via intravenous injection at 1 mg/kg (control group 3) and 1 mg/kg (compound 20), respectively, with an administration volume of 5 mL/kg and a vehicle of 5% DMSO+10% solutol (HS15)+85% Saline. Blood samples were taken before administration and at 2 min, 4 min, 8 min, 12 min, 15 min, 30 min, 1 h, 1.5 h and 2 h after administration. Plasma samples were taken by centrifugation, and stored in a −80° C. refrigerator until LC-MS analysis to be tested. After sample processing, quantitative analysis of substances in plasma was conducted using LCMS/MS to detect the concentration of prototype compounds in the plasma. The plasma concentration/time curve obtained in this way was used to calculate pharmacokinetic parameters by a validated pharmacokinetic computer program.

Where [5] appears, read: mice, iv, administration to disappearance of righting reflex.
The mark [6] stands for this setting: mice, iv, disappearance to recovery of righting reflex.

Experimental for SD rats: as §2

Take `CCC(c1cccc(C(C)C2CC2)c1O)S(C)(=O)=O` (stereo not shown) [Compound 14, 2-(1-cyclopropylethyl)-6-(1-(methylsulfonyl)propyl)phenol]: in “in vivo [1]”, the LD50 (commonly the dose at which mortality reaches 50%) turned out to be 12 mg/kg and the MTD came to 9 mg/kg. The ED50 (in general, the dose at which the effect has come halfway, by size or by number of responders) in the series on ICR mice (iv) was found to be 4 mg/kg. Moreover, the TI with ICR mice (mice, LD50/ED50) amounted to 3.0. In the series on ICR mice (setting [5]), the Anesthesia induction time was 2 s. Also, the Anesthesia maintenance time in the series with ICR mice (setting [6]) is 499 s.

For the compound `CCS(=O)(=O)[C@H](C)c1cccc([C@H](C)C2CC2)c1O` [Compound 23, 2-((R)-1-cyclopropylethyl)-6-((R)-1-(ethylsulfonyl)ethyl)phenol], in the series “in vivo [1]”, the LD50 is 14 mg/kg and the MTD was 10 mg/kg. The same compound showed an ED50 with ICR mice (iv) of 7 mg/kg. In the series on ICR mice (mice, LD50/ED50), this compound came in with a TI of 2. Further, in the series on ICR mice (setting [5]), the Anesthesia induction time is 2 s. Also, the Anesthesia maintenance time with ICR mice (setting [6]) was 294 s.

In the series “in vivo [1]”, `CC(c1cccc(C(C)S(C)(=O)=O)c1O)C1CC1` (stereo not shown) [Compound 4, 2-(1-cyclopropylethyl)-6-(1-(methylsulfonyl)ethyl)phenol] had a median lethal dose (LD50) of 10 mg/kg and an MTD of 4 mg/kg. This compound showed a 50% effective dose (ED50) with ICR mice (iv) of 2 mg/kg. Besides, in the series with ICR mice (mice, LD50/ED50), the TI turned out to be 5.0. Besides, in the series on ICR mice (setting [5]), the Anesthesia induction time was determined as 2 s. The compound also registered an Anesthesia maintenance time in the series on ICR mice (setting [6]) of 356 s.

In “in vivo [1]”, `CC(C)c1cccc(C(C)[S+](C)[O-])c1O` (stereo not shown) [Compound 2, 2-isopropyl-6-(1-(methylsulfinyl)ethyl)phenol] registered an LD50 of 17 mg/kg and an MTD of 10 mg/kg. The ED50 with ICR mice (iv) amounted to 6 mg/kg. Besides, in the series on ICR mice (mice, LD50/ED50), the TI came to 3.8. Besides, the Anesthesia induction time in the series on ICR mice (setting [5]) amounted to 2 s. The Anesthesia maintenance time in the series on ICR mice (setting [6]) turned out to be 690 s.

On to `CCS(=O)(=O)C(C)c1cccc(C(C)C2CC2)c1O` (stereo not shown) [Compound 11, 2-(1-cyclopropylethyl)-6-(1-(ethylsulfonyl)ethyl)phenol], for which, in the series “in vivo [1]”, the LD50 is 11 mg/kg and the MTD was 6 mg/kg. Also, in the series on ICR mice (iv), the 50% effective dose (ED50) stood at 2 mg/kg. In the series with ICR mice (mice, LD50/ED50), this compound yielded a TI of 5.5. For the same compound, the Anesthesia induction time in the series on ICR mice (setting [5]) was 22 s. The Anesthesia maintenance time with ICR mice (setting [6]) is recorded as 560 s.

In “in vivo [1]”, `CC(c1cccc(C(C)S(=O)(=O)C(C)C)c1O)C1CC1` (stereo not shown) [Compound 6, 2-(1-cyclopropylethyl)-6-(1-(isopropylsulfonyl)ethyl)phenol] registered an LD50 of 34 mg/kg and an MTD of 22 mg/kg. In addition, it took a dose of 11 mg/kg to reach the 50% effect level with ICR mice (iv) (ED50). Moreover, the TI in the series with ICR mice (mice, LD50/ED50) is on record as 3.1. In the series on ICR mice (setting [5]), this compound showed an Anesthesia induction time of 5 s. In the series with ICR mice (setting [6]), this compound registered an Anesthesia maintenance time of 579 s.

In the series “in vivo [1]”, `CC(C)c1cccc(C(C)S(C)(=O)=O)c1O` (stereo not shown) [Compound 1, 2-isopropyl-6-(1-(methylsulfonyl)ethyl)phenol] showed an LD50 of 35 mg/kg and an MTD of 24 mg/kg. This compound yielded an ED50 in the series on ICR mice (iv) of 8 mg/kg. For the same compound, the TI with ICR mice (mice, LD50/ED50) worked out at 4.4. In the series on ICR mice (setting [5]), this compound showed an Anesthesia induction time of 60 s. In the series on ICR mice (setting [6]), this compound returned an Anesthesia maintenance time of 255 s.

`CC(C)c1cccc(C(C)C)c1O` [Control group 1, propofol, reference compound] came in with an LD50 in the series “in vivo [1]” of 31 mg/kg. The same compound displayed an ED50 with ICR mice (iv) of 12 mg/kg. In the series on ICR mice (mouse, in vivo), this compound yielded an Anesthesia induction time of 19 s and an Anesthesia maintenance time of 586 s. The compound also gave an MTD with ICR mice (mouse, in vivo, iv) of 20 mg/kg.

Take `CCS(=O)(=O)[C@@H](C)c1cccc([C@@H](C)C2CC2)c1O` [Compound 22, 2-((S)-1-cyclopropylethyl)-6-((S)-1-(ethylsulfonyl)ethyl)phenol]: in “in vivo [1]”, the LD50 is 18 mg/kg and the MTD stood at 9 mg/kg. In the series on ICR mice (iv), this compound showed a 50% effective dose (ED50) of 5 mg/kg. For the same compound, in the series with ICR mice (mice, LD50/ED50), the TI is recorded as 3.6. For the same compound, the Anesthesia induction time with ICR mice (setting [5]) amounted to 2 s. The Anesthesia maintenance time in the series with ICR mice (setting [6]) amounted to 384 s.

Regarding `CC(C)c1cccc([C@H](C)C2CC2)c1O` [Control group 3, ciprofol, reference compound], the AUC(0-t) (in general, the area under the concentration-time curve up to a stated or last time point) came to 145 ng·h/mL in series [2] and 142 ng·h/mL in series [4]. Further, the half-life (as a rule, the time in which the quantity being followed falls by half) in series [2] is 37.8 min; in series [4], 50.6 min. The “change in heart rate after administration” value with Beagle dogs is “slow down in heart rate”. The LD50 in “in vivo [3]” is 5.6 mg/kg; in the series “in vivo [1]”, 6 mg/kg. Moreover, the results for the MTD in “in vivo [3]” and in the series “in vivo [1]” were 4 mg/kg and 3.1 mg/kg, respectively. The ED50 in the series on SD rats (Rattus norvegicus, iv) came to 1.1 mg/kg; with ICR mice (iv) it was 1.2 mg/kg. Moreover, the Anesthesia induction time in the series with SD rats (rat, in vivo) came out at 34 s; in the series with ICR mice (mouse, in vivo) it was 2 s. Besides, the Anesthesia maintenance time is 409 s in the series with SD rats (rat, in vivo) and 521 s in the series with ICR mice (mouse, in vivo). Moreover, the TI came to 5.1 in the series with SD rats (rat, in vivo) and 5 in the series on ICR mice (mouse, in vivo).

In the series “in vivo [1]”, `CC(c1cccc(C(C)[S+](C)[O-])c1O)C1CC1` (stereo not shown) [Compound 5, 2-(1-cyclopropylethyl)-6-(1-(methylsulfinyl)ethyl)phenol] showed an LD50 of 10 mg/kg and an MTD of 8 mg/kg. In the series with ICR mice (iv), this compound registered an ED50 of 6 mg/kg. The same compound came in with a TI in the series on ICR mice (mice, LD50/ED50) of 1.7. This compound also registered an Anesthesia induction time with ICR mice (setting [5]) of 2 s. Besides, the Anesthesia maintenance time in the series on ICR mice (setting [6]) was 1638 s.

With `CCS(=O)(=O)[C@H](C)c1cccc([C@@H](C)C2CC2)c1O` [Compound 21, 2-((S)-1-cyclopropylethyl)-6-((R)-1-(ethylsulfonyl)ethyl)phenol], in the series “in vivo [1]”, the LD50 is 6 mg/kg and the MTD worked out at 3.5 mg/kg. In the series on ICR mice (iv), this compound yielded an ED50 of 2.5 mg/kg. This compound also yielded a TI in the series with ICR mice (mice, LD50/ED50) of 2.4. The compound also gave an Anesthesia induction time with ICR mice (setting [5]) of 2 s. For the same compound, the Anesthesia maintenance time in the series on ICR mice (setting [6]) amounted to 354 s.

In the case of `CC(C)c1cccc(C(C)C2CC2)c1O` (stereo not shown) [Control group 2, ciprofol, reference compound], in “in vivo [1]”, the median lethal dose (LD50) was determined as 17 mg/kg and the MTD is 9 mg/kg. In the series on ICR mice (iv), this compound yielded an ED50 of 3.5 mg/kg. Also, in the series with ICR mice (mouse, in vivo), the Anesthesia induction time is on record as 2 s, the Anesthesia maintenance time was determined as 534 s and the TI was determined as 4.9.
